Biological target: T1, human TRPM2 (Homo sapiens, UniProt O94759)
T1 construct: expressed in transfected cells; host or cells: HEK293
Experiment: fluo-4 Ca2+ assay selectivity, HEK cells expressing human TRPM2
Format: cell-based
Settings: concentrations up to 50 μM
Excerpt: KU-19-19 (DSMZ no. ACC 395), CAL-29 (DSMZ no. ACC 515), 647-V (DSMZ no. ACC 414), RT-4 (DSMZ no. ACC 412), and RT-112 (DSMZ no. ACC 418) bladder cancer cell lines were obtained from the Leibniz Institute DSMZ (German Collection of Microorganisms and Cell Cultures). Human TRPV3 (NM_145068, purchased from OriGene) and mouse TRPV3 (NM_001371006), rat TRPV1, mouse TRPV2, mouse TRPV4, human TRPM2, human TRPM8, and human TRPA1 were stably transfected in HEK293 cells as described before.[27] […]
All fluorometric Ca^2+ assays were performed in HBS buffer at room temperature. […] For the primary compound screening and the generation of concentration-response analyses, a robotic liquid handling station (Freedom Evo 150; Tecan) with a built-in custom-made fluorescence plate imager was used. […] Fluorescence was excited using a 470-nm light-emitting diode, and emitted light was imaged through a 515-nm–long pass filter with a cooled Zyla 5.5 camera (Andor). Fluorescence was recorded and processed under the control of the μ-Manager 2.0 gamma software (https://micro-manager.org.[28]). After recording baseline fluorescence, compounds were dispensed into the wells via the liquid handling device. […] For further analysis, fluorescence signals were calculated for each well, corrected for background intensities and normalized to the initial signals. […]

T1 sequence (O94759 whole entry): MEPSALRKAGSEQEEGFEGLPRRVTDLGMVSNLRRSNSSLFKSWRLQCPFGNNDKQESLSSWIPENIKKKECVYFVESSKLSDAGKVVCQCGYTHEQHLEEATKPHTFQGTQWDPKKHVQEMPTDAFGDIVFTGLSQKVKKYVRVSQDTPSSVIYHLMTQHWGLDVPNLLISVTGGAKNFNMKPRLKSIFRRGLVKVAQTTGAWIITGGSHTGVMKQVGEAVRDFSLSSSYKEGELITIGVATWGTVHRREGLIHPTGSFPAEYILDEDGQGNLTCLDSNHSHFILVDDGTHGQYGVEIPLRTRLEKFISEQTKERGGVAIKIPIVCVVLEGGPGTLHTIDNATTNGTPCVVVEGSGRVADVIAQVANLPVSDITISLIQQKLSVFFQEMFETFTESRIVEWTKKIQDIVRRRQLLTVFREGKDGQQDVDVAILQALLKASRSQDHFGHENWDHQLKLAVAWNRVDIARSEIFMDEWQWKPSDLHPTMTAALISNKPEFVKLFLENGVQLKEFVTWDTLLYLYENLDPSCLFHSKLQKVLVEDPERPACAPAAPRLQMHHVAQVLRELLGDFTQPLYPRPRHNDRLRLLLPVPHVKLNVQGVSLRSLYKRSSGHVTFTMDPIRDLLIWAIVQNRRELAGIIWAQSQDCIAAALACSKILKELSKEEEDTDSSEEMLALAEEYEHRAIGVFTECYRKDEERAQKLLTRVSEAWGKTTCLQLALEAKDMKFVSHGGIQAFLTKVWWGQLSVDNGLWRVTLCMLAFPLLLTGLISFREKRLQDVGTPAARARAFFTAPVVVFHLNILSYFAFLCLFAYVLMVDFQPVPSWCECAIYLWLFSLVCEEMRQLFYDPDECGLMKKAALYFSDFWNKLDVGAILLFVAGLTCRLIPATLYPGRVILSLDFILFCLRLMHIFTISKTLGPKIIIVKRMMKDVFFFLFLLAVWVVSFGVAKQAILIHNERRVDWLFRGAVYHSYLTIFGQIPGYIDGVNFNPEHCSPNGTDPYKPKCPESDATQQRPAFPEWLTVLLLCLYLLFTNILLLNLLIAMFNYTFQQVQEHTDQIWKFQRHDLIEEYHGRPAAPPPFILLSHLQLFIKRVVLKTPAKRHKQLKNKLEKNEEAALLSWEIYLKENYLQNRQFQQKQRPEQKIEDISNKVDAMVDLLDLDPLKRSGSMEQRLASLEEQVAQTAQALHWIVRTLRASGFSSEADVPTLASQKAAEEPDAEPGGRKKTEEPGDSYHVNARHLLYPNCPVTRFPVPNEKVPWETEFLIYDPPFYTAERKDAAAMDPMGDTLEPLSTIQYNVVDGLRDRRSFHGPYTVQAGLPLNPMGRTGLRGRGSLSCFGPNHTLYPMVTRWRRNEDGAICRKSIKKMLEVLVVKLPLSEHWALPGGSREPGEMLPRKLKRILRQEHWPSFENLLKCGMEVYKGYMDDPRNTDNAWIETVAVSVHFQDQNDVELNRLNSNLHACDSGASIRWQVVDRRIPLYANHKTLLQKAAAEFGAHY

effect on TRPM2: no effect
SMILES: COC(=O)C12CN(Cc3ccccc3)CC1(C(=O)OC)CN(Cc1ccccc1)C2 (stereo not shown) [AV3-1]

Source: article PMC12881674, “Activation of TRPV3 channels in bladder cancer cells stimulates ATP release” (Molecular Pharmacology, 2025)
